Earlier results in patent publication US7226619B1, “Material for controlling diversion of medications” (PharmoRx Inc., priority 2004, dated 2007).
Read-outs that look alike come from different tables or passages of the source.

Experiments:
[1] = target: 2D6 component of the P450 metabolic system (Homo sapiens, UniProt P10635)
[2] = oxymorphone vs parent oxycodone; per Richard B. Patt, American Pain Society Bulletin 6(4), 1996

2D6 component of the P450 metabolic system, sequence (P10635 whole entry): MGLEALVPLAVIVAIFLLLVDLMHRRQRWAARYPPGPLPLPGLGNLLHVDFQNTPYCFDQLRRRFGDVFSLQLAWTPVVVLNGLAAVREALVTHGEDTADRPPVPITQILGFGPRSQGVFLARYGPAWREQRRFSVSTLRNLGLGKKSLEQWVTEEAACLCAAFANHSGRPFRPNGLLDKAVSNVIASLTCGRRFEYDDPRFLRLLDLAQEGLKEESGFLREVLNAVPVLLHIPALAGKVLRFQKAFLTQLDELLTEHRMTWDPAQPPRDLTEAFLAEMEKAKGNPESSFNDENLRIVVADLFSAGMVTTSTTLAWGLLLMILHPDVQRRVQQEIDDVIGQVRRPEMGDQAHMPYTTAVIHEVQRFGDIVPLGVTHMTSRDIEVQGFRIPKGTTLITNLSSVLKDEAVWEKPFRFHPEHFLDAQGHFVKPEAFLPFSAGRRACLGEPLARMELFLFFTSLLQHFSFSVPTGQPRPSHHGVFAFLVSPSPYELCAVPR

Row | Compound | inhibitor of 2D6 (in words) ([1]; qualitative statement, no data) | inhibitor of 2D6 (in words) [1] | other results
1 | COC(=O)C1=CO[C@@H](C)[C@H]2CN3CCc4c([nH]c5ccccc45)[C@@H]3C[C@H]12 [ajmalicine] | strong inhibitors |  | 
2 | CN/C(=N/CCSCc1nc[nH]c1C)NC#N [cimetidine] |  | strong inhibitors | 
3 | COc1ccc(CN(CCN(C)C)c2ccccn2)cc1 [mepyramine] |  | strong inhibitors | 
4 | CN1CC[C@]23c4c5ccc(O)c4O[C@H]2C(=O)CC[C@@]3(O)[C@H]1C5 [oxymorphone] |  |  | effectiveness as an agonist relative to oxycodone [2]: at least 10 times
5 | Fc1ccc([C@@H]2CCNC[C@H]2COc2ccc3c(c2)OCO3)cc1 [paroxetine] | strong inhibitors |  | 
6 | C=C[C@H]1C[N@@]2CC[C@H]1C[C@@H]2[C@@H](O)c1ccnc2ccc(OC)cc12 [quinidine] | strong inhibitors |  | 
7 | COC(=O)[C@H]1[C@H]2C[C@@H]3c4[nH]c5cc(OC)ccc5c4CCN3C[C@H]2C[C@@H](OC(=O)c2cc(OC)c(OC)c(OC)c2)[C@@H]1OC [reserpine] |  | strong inhibitors | 
